Data from article PMC7475246, “Unravelling the effect of two herbicide resistance mutations on acetolactate synthase kinetics and growth traits” (Journal of Experimental Botany, 2020).

Test system: T1, acetolactate synthase (ALS; AHAS), ALS1 and ALS2
T1 construct: native enzyme, partially purified by ammonium sulfate precipitation from young shoots (three- to four-leaf stage); mixture of ALS1 and ALS2
Experiment: in vitro ALS activity, colorimetric acetoin assay at […] nm
Type: biochemical, Alopecurus aequalis
Conditions: 37 °C, 60 min; pH 7.5 HEPES, MgCl2, thiamine pyrophosphate, FAD; extract buffer with 200 mM pyruvate mixed 1:1 with MM; mean of three susceptible populations; read-out: I50

Work on COC(=O)c1ccc(CNS(C)(=O)=O)cc1S(=O)(=O)NC(=O)Nc1nc(OC)cc(OC)n1 [MM, mesosulfuron-methyl] yielded an IC50 of 35.5 nM.
